Reference: patent US4851221A, “Liquid calcium supplementation from readily soluble mixtures of calcium compound and citric acid” (Mission Pharmacal Company, priority 1986, dated 1989)
Where a name gives a salt, the structure may show the parent alone.

What was measured:
[1] = radiocalcium absorption (fecal recovery of radioactive calcium); assay type: in vivo; conditions: 6 normal subjects; oral radiocalcium-labeled; mean ± SD; * p < 0.05 vs tricalcium dicitrate (pre-mix 1.25)
Description: (§1) The pre-mixes yielded greater absorbability of calcium than tricalcium dicitrate. […] The calcium absorption was also measured more directly from the recovery of radiocalcium after taking labeled calcium preparations in 6 normal subjects.

[2] = during treatment; cited from earlier work
[3] = oral; comparable amount; cited from earlier work
[4] = indirect method of oral calcium loading: increment in urinary calcium; assay type: in vivo; conditions: second two hours after oral 500 mg calcium; 10 normal subjects; mean ± SD; ** p < 0.01 vs tricalcium dicitrate (pre-mixes 1.5 and 1.25)
Description: as §1
This indirect measure of calcium absorption was greatest for the pre-mix with a calcium/citrate molar ratio of 1.25 than for other pre-mixes.

[5] = blood pressure in essential hypertension; assay type: in vivo; conditions: 800 mg calcium/day
[6] = in vivo; cited from earlier work
[7] = cited from earlier work
[8] = cited from earlier work; remark: listed apart in the source
[9] = patients with absorptive hypercalciuria; cited from earlier work

In the case of `O=C(O)CC(O)(CC(=O)O)C(=O)O` [Tricalcium Dicitrate, tricalcium dicitrate], the control of hyperphosphatemia (1.5-2.75 g calcium/day, preliminary data) is reported as “satisfactory control of hyperphosphatemia could be achieved in the majority of patients”, the “serum aluminum concentration after treatment” value (after 8 weeks of treatment, p< 0.05, 1.5-2.75 g calcium/day) is reported as 79 ng/mL and the “serum aluminum concentration before treatment” value (before treatment) is reported as 127 ng/mL. The “Calcium Absorption” value [1] was 19.1 ± 6.9%, the urinary citrate change [2] was “Urinary citrate rose significantly during calcium citrate treatment” and the “calcium absorbability versus calcium carbonate” value [3] was “more calcium was absorbable from calcium citrate than from a comparable amount of calcium carbonate”. For the same compound, the “Increment in Urinary Calcium” value [4] was 0.087 ± 0.087 mg calcium/100 ml glomerular f and the “effect on blood pressure” value [5] was “Neither calcium carbonate nor tricalcium dicitrate (800 mg calcium/day) was effective in lowering blood pressure”.

For `[OH][Al]([OH])[OH]` [aluminum hydroxide], the “aluminum accumulation / osteomalacia” value [6] is given as “aluminum accumulation in the body causing a vitamin D resistant osteomalacia”.

For `O=C(O)O` [calcium carbonate], the urinary citrate change [2] is listed as “not during calcium carbonate therapy”, the “prevention of vertebral bone loss” value ([7]; Christiansen et al., postmenopausal women) is listed as “ineffective in preventing vertebral bone loss” and the “absorption of ingested phosphate” value ([8]; 3-20 g calcium/day, Clarkson et al.) is listed as “prevent the absorption of ingested phosphate”. The “effect on blood pressure” value [5] was “Neither calcium carbonate nor tricalcium dicitrate (800 mg calcium/day) was effective in lowering blood pressure”.

In the case of `O=C(O)CC(O)(CC(=O)O)C(=O)O` [calcium citrate], the serum phosphate concentration ([8]; 2 g calcium/day, patients with renal failure, McDonald et al.) is listed as “effective in restoring normal serum phosphate concentration”.

In the case of `O=C(O)[C@H](O)[C@@H](O)[C@H](O)[C@H](O)CO` [calcium gluconate], the “urinary calcium / activity product ratio (calcium oxalate saturation)” value [9] is listed as “increased urinary calcium, leading to an increased activity product ratio”.

In the case of `CC#C[C@]1(O)CC[C@H]2[C@@H]3CCc4cc(O)ccc4[C@H]3CC[C@@]21C` [estrogen], the “prevention of further bone losses” value ([7]; Recker et al., osteoporosis prone postmenopausal women) is listed as “may be prevented by estrogen treatment”.
